{"source": "patent US20050227300A1", "about": "“Use of alpha-tubulin acetylation levels as a biomarker for protein deacetylase inhibitors” (priority 2001, published 2005)", "key": {"HCT 166 cells": {"tested_on": "HCT 166 cells", "experiment": "2-D gel electrophoresis / western blotting with anti-acetyllysine of extracts of HDAC-2 treated cells", "assay_type": "cell-based, human", "details": "HDAC-2 treated vs control, IEF pH 3-10"}, "[1]": {"tested_on": "alpha-tubulin acetylation", "experiment": "Time course of HDAC-2 induced tubulin acetylation in cell lines", "assay_type": "cell-based", "details": "200 nM", "description": "Time Course of HDAC-2 Induced Tubulin Acetylation in Cell Lines"}, "[2]": {"tested_on": "Tubulin Acetylation in HCT 116 Tumor Xenografts", "experiment": "Tubulin acetylation in HCT 116 tumor xenografts in mice (western blotting with anti-acetylated alpha-tubulin antibody)", "assay_type": "in vivo", "protocol": "In order to correlate the antitumor activity of HDAC-2 with its induction of tubulin acetylation, levels of acetylated tubulin are examined in tumors of athymic mice bearing HCT 116 treated with HDAC-2 and control mice. Mice are dosed with 100 mg/kg of HDAC-2 and the tumors are dissected 3, 6, 16 or 24 h post dose. Tubulin acetylation levels are detected with antibodies specific for acetylated alpha-tubulin. […] Tumors are dissected 1 hour post dose and levels of acetylated tubulin determined by western blotting with the anti-acetylated alpha-tubulin antibody."}, "[3]": {"details": "athymic mice bearing HCT 116, 100 mg/kg, intravenous"}}}
{"smiles": "O=C(/C=C/c1ccc(CN(CCO)CCc2c[nH]c3ccccc23)cc1)NO", "note": "[HDAC-2, N-hydroxy-3-[4-[[(2-hydroxyethyl)[2-(1H-indol-3-yl)ethyl]-amino]methyl]phenyl]-2E-2-propenamide]", "values": [{"measurement": "anti-acetyllysine immunostaining of cell extracts (histone bands and non-histone spot around pH 4.5, later identified as acetylated alpha-tubulin)", "setting": "HCT 166 cells", "value": "prominently stained bands of low molecular weight corresponding to histones are visible at the lower right corner as well as a non-histone spot around pH 4.5"}, {"measurement": "time of maximal alpha-tubulin acetylation", "setting": "[1]", "value": 4, "unit": "h"}, {"measurement": "acetylation of alpha-tubulin reached, relative to the maximal acetylation (at 4 hours)", "setting": "[1]; 30 min after addition", "value": "more than 30%"}, {"measurement": "state of cells at last time point", "setting": "[1]; 18 hours", "value": "cells are visibly damaged"}, {"measurement": "induction of tubulin acetylation in the tumors", "setting": "[2]; HCT 116 tumor bearing mice, i.v. dose as low as 2 mg/kg, 1 hour post dose", "value": "able to induce tubulin acetylation"}, {"measurement": "Proliferating Cell Nuclear Antigen (PCNA) levels in tumors", "setting": "[2]; [3]", "value": "essentially invariant"}, {"measurement": "duration of increase in acetylated alpha-tubulin in tumors", "setting": "[2]; [3]", "value": "at least 8 h"}, {"measurement": "time to consistent increases in acetylated alpha-tubulin in tumors", "setting": "[2]; [3]", "value": "≤ 30", "unit": "min"}]}
